From patent publication US20140171320A1, “Composition Comprising A Pesticide And An Alkoxylate Of 2-Isopropyl-5-Methylhexane-1-Amine” (BASF SE, priority 2012, published 2014)

Assays:
[1] = test system: winter wheat (cultivar Cubus); experiment: Greenhouse herbicidal activity of glyphosate SL formulation with amine alkoxylate adjuvant on winter wheat; type: in vivo; settings: after 21 days; 140 g glyphosate-IPA salt/ha and 300 g amine alkoxylate/ha, 375 l/ha water; score vs untreated plants
Experimental: (§1) For the greenhouse tests, winter wheat (cultivar Cubus), soybean (cultivar Sultana), and maize (cultivar Amadeo) was sown or potted in loamy sandy soil to a depth of 1-2 cm. When the plants had reached a growth height of 10 to 25 cm (i.e., around 10 to 21 days after sowing), the spray mixtures were applied to the plants in a spraying cabin.
(§2) A concentrated formulation comprising glyphosate isopropylammonium in solution in water and amine alkoxylate from Example 2 was diluted with deionized water and applied at a water application rate of 375 l/ha (140 g of glyphosate-IPA salt/ha and 300 g of amine alkoxylate/ha). The temperatures in the experimental period, which lasted for 3 weeks, were between 18-35° C. During this time, the experimental plants received optimum watering, with nutrients being supplied via the water used for watering.
(§3) The herbicidal activity was evaluated by awarding scores to the treated plants in comparison to the untreated control plants (Table 2). The evaluation scale ranges from 0% to 100% activity. 100% activity means the complete death at least of those parts of the plant that are above ground. Conversely, 0% activity means that there were no differences between treated and untreated plants.

[2] = test system: soybean (cultivar Sultana); experiment: Greenhouse herbicidal activity of glyphosate SL formulation with amine alkoxylate adjuvant on soybean; type: in vivo; settings: after 21 days; 140 g glyphosate-IPA salt/ha and 300 g amine alkoxylate/ha, 375 l/ha water; score vs untreated plants
Experimental: as §1, §2, §3

[3] = Storage stability of aqueous glyphosate formulation; type: physicochemical; settings: 41.5% by weight glyphosate-isopropylammonium salt and 15.5% by weight amine alkoxylate, −5 to +55° C.
[4] = test system: Sorghum halepense (SORHA); experiment: Greenhouse herbicidal activity of glyphosate SL formulation with amine alkoxylate adjuvant on Sorghum; type: in vivo; settings: after 21 days; 140 g glyphosate-IPA salt/ha and 300 g amine alkoxylate/ha; score vs untreated plants
Experimental: as §1, §2, §3
(§4) The experiments were carried out as in Example 3, on Sorghum halepense (SORHA) and Setaria verticillata (SETVE). The application rate was 140 g of glyphosate-IPA salt/ha and 300 g of amine alkoxylate/ha.

[5] = test system: Setaria verticillata (SETVE); experiment: Greenhouse herbicidal activity of glyphosate SL formulation with amine alkoxylate adjuvant on Setaria; type: in vivo; settings: after 21 days; 140 g glyphosate-IPA salt/ha and 300 g amine alkoxylate/ha; score vs untreated plants
Experimental: as §1, §2, §3, §4

maize (cultivar Amadeo) = experiment: Greenhouse herbicidal activity of glyphosate SL formulation with amine alkoxylate adjuvant on maize; type: in vivo; settings: after 21 days; 140 g glyphosate-IPA salt/ha and 300 g amine alkoxylate/ha, 375 l/ha water; score vs untreated plants
Experimental: as §1, §2, §3

Row | Compound | Activity [%] Winter wheat [1] | Activity [%] Soybean [2] | Storage stability [3] | Activity [%] SORHA [4] | Activity [%] SETARIA [5] | Activity [%] Maize (maize (cultivar Amadeo))
1 | 2-Isopropyl-5-methylhexane-1-amine-10 EO | 62% | 48% | storage stable for at least two weeks | 93% | 78% | 80%
2 | 2-propylheptylamine-10 EO | 55% | 42% |  | 97% | 88% | 80%
3 | CC(C)N.O=C(O)CNCP(=O)(O)O [—, glyphosate isopropylammonium] | 18% | 20% |  | 33% | 58% | 32%
